The values below come from patent US20200045962A1, “METHOD FOR PREPARING SURFACTANT COMPOSITIONS COMPRISING ALKYL LIDURONAMIDES D-GLUCURONAMIDES AND L-RHAMNOSIDES FROM ULVANS” (ÉCOLE NATIONALE SUPÉRIEURE DE CHIMIE, priority 2016, published 2020).

Test in all cases: Protocol A: diffusion on agar in Petri dishes
Common to all, as to assay type: cell-based

For one assay, the system named is Candida albicans. Here is the method:
(§1) The culture medium used was a mixture of 21 g/L of Muller-Hinton broth and 10 g/L of agar in water. This mixture was stirred and then left to boil. Next, a step of autoclaving of this mixture for 30 minutes was necessary in order to sterilize it before any manipulation. This culture medium was poured, while hot, into Petri dishes and then left to cool.
(§2) 5 milligrams of RhamOC4 were dissolved in 1 mL of DMSO. Twofold serial dilution with DMSO was then performed starting with the stock solution, so as to obtain the concentrations 2.5 g·L^−1, 1.25 g·L^−1, 0.625 g·L^−1 and 0.3125 g·L^−1.
(§3) The bacterial strains used were Pseudomonas aeruginosa, Escherichia coli, Enterococcus faecium and Staphylococcus aureus, in addition to the fungal strain Candida albicans. 10^6 bacteria were collected and then transferred into a 0.9% NaCl solution. Each Petri dish, containing the Muller-Hinton medium, was inoculated with a different bacterial suspension.
(§4) After having left the bacterial suspensions to dry on the agar, 10 μL of the test solution (RhamOC4), at various concentrations, were deposited on the surface of the agar inoculated with the bacterial suspension. 10 μL of DMSO were placed in each Petri dish as negative control.
(§5) After drying, the Petri dishes were finally incubated at 37° C. in an oven for 24 hours. The antibacterial activity was evaluated by measuring the clarification zone in mm around the place of deposition of the various concentrations of the test RhamOC4 solution.

A further assay concerns Staphylococcus aureus. Here is the method:
as §1, §2, §3, §4
(§6) The positive controls used were discs soaked with ampicillin for Escherichia coli and Enterococcus faecium, ceftazidim discs for Pseudomonas aeruginosa and vancomycin discs for Staphylococcus aureus.
as §5

For a further assay, the system named is Escherichia coli. Here is the method: as §1, §2, §3, §4, §6, §5
The subject of a further assay is Pseudomonas aeruginosa. On the procedure: as §1, §2, §3, §4, §6, §5
For another assay, the system named is Enterococcus faecium. On the procedure:
as §1, §2, §3, §4, §6, §5

Where [1] appears, read: antibiotic disc, concentration not given.

Turning to `CCCCO[C@@H]1O[C@@H](C)[C@H](O)[C@@H](O)[C@H]1O` [RhamOC4, n-butyl α-L-rhamnopyranoside], the zone of inhibition at 0.3125 mg/mL in the assay with Candida albicans (Candida albicans, 0.3125 mg·mL^−1, 10 μL, 24 hours 37° C., read-out: Clarification zone, C. albicans) amounted to 0 mm; in the assay on Staphylococcus aureus (Staphylococcus aureus, 0.3125 mg·mL^−1, 10 μL, 24 hours 37° C., read-out: Clarification zone, S. aureus) it was 0 mm; in the assay with Escherichia coli (Escherichia coli, 0.3125 mg·mL^−1, 10 μL, 24 hours 37° C., read-out: Clarification zone, E. coli), 0 mm; in the assay with Pseudomonas aeruginosa (Pseudomonas aeruginosa, 0.3125 mg·mL^−1, 10 μL, 24 hours 37° C., read-out: Clarification zone, P. aeruginosa), 0 mm; in the assay on Enterococcus faecium (Enterococcus faecium, 0.3125 mg·mL^−1, 10 μL, 24 hours 37° C., read-out: Clarification zone, E. faecium), 0 mm. For the same compound, the zone of inhibition at 0.625 mg/mL is 0 mm in the assay with Candida albicans (Candida albicans, 0.625 mg·mL^−1, 10 μL, 24 hours 37° C., read-out: Clarification zone, C. albicans); 0 mm with Staphylococcus aureus (Staphylococcus aureus, 0.625 mg·mL^−1, 10 μL, 24 hours 37° C., read-out: Clarification zone, S. aureus); 0 mm in the assay with Escherichia coli (Escherichia coli, 0.625 mg·mL^−1, 10 μL, 24 hours 37° C., read-out: Clarification zone, E. coli); 0 mm in the assay with Pseudomonas aeruginosa (Pseudomonas aeruginosa, 0.625 mg·mL^−1, 10 μL, 24 hours 37° C., read-out: Clarification zone, P. aeruginosa); 0 mm with Enterococcus faecium (Enterococcus faecium, 0.625 mg·mL^−1, 10 μL, 24 hours 37° C., read-out: Clarification zone, E. faecium). Further, the zone of inhibition at 1.25 mg/mL with Candida albicans (Candida albicans, 1.25 mg·mL^−1, 10 μL, 24 hours 37° C., read-out: Clarification zone, C. albicans) turned out to be 5 mm; in the assay on Staphylococcus aureus (Staphylococcus aureus, 1.25 mg·mL^−1, 10 μL, 24 hours 37° C., read-out: Clarification zone, S. aureus), 5 mm; in the assay on Escherichia coli (Escherichia coli, 1.25 mg·mL^−1, 10 μL, 24 hours 37° C., read-out: Clarification zone, E. coli), 0 mm; in the assay with Pseudomonas aeruginosa (Pseudomonas aeruginosa, 1.25 mg·mL^−1, 10 μL, 24 hours 37° C., read-out: Clarification zone, P. aeruginosa) it was 0 mm; in the assay on Enterococcus faecium (Enterococcus faecium, 1.25 mg·mL^−1, 10 μL, 24 hours 37° C., read-out: Clarification zone, E. faecium), 0 mm. Besides, the zone of inhibition at 2.5 mg/mL came out at 14 mm with Candida albicans (Candida albicans, 2.5 mg·mL^−1, 10 μL, 24 hours 37° C., read-out: Clarification zone, C. albicans); 5 mm in the assay on Staphylococcus aureus (Staphylococcus aureus, 2.5 mg·mL^−1, 10 μL, 24 hours 37° C., read-out: Clarification zone, S. aureus); 4 mm in the assay on Escherichia coli (Escherichia coli, 2.5 mg·mL^−1, 10 μL, 24 hours 37° C., read-out: Clarification zone, E. coli); 0 mm in the assay with Pseudomonas aeruginosa (Pseudomonas aeruginosa, 2.5 mg·mL^−1, 10 μL, 24 hours 37° C., read-out: Clarification zone, P. aeruginosa); 4 mm in the assay with Enterococcus faecium (Enterococcus faecium, 2.5 mg·mL^−1, 10 μL, 24 hours 37° C., read-out: Clarification zone, E. faecium). Besides, the zone of inhibition at 5 mg/mL stood at 18 mm in the assay with Candida albicans (Candida albicans, 5 mg·mL^−1, 10 μL, 24 hours 37° C., read-out: Clarification zone, C. albicans); 10.5 mm in the assay with Staphylococcus aureus (Staphylococcus aureus, 5 mg·mL^−1, 10 μL, 24 hours 37° C., read-out: Clarification zone, S. aureus); 9 mm with Escherichia coli (Escherichia coli, 5 mg·mL^−1, 10 μL, 24 hours 37° C., read-out: Clarification zone, E. coli); 4 mm in the assay on Pseudomonas aeruginosa (Pseudomonas aeruginosa, 5 mg·mL^−1, 10 μL, 24 hours 37° C., read-out: Clarification zone, P. aeruginosa). In addition, the “Capacity to inhibit growth of Candida albicans” value with Candida albicans (summary of agar diffusion) is given as “very good capacity to inhibit the growth”. Besides, in the assay with Staphylococcus aureus (summary of agar diffusion), the “Capacity to inhibit growth of Staphylococcus aureus” value is on record as “very good capacity to inhibit the growth”. Besides, the “Inhibitory power on growth of Pseudomonas aeruginosa” value in the assay with Pseudomonas aeruginosa (summary of agar diffusion) is recorded as “poor inhibitory power”. In addition, in the assay on Enterococcus faecium (Enterococcus faecium, 5 mg·mL^−1, 10 μL, 24 hours 37° C., read-out: Clarification zone, E. faecium), the zone of inhibition at 5 µg/mL stood at 6 mm.

As for `CN[C@H](CC(C)C)C(=O)N[C@H]1C(=O)N[C@@H](CC(N)=O)C(=O)N[C@H]2C(=O)N[C@H]3C(=O)N[C@H](C(=O)N[C@H](C(=O)O)c4cc(O)cc(O)c4-c4cc3ccc4O)[C@H](O)c3ccc(c(Cl)c3)Oc3cc2cc(c3O[C@@H]2O[C@H](CO)[C@@H](O)[C@H](O)[C@H]2O[C@H]2C[C@](C)(N)[C@H](O)[C@H](C)O2)Oc2ccc(cc2Cl)[C@H]1O` [Vancomycin, vancomycin, reference compound], in the assay with Staphylococcus aureus (setting [1]), the “Clarification zone, S. aureus, positive control” value is “(19 mm)”.

Turning to `CC1(C)S[C@@H]2[C@H](NC(=O)[C@H](N)c3ccccc3)C(=O)N2[C@H]1C(=O)O` [Ampicillin, ampicillin, reference compound], in the assay with Escherichia coli (setting [1]), the “Clarification zone, E. coli, positive control” value was “(22 mm)”. The “Clarification zone, E. faecium, positive control” value with Enterococcus faecium (setting [1]) is “(26 mm)”.

For the compound `CC(C)(O/N=C(\C(=O)N[C@@H]1C(=O)N2C(C(=O)[O-])=C(C[n+]3ccccc3)CS[C@H]12)c1csc(N)n1)C(=O)O` [Ceftazidim, ceftazidim, reference compound], the “Clarification zone, P. aeruginosa, positive control” value in the assay with Pseudomonas aeruginosa (setting [1]) is “(28 mm)”.
